Assay results: patent EP2605769B1, “BENZOQUINONE DERIVATIVES FOR THE TREATMENT OF MITCHONDRIAL EYE DISEASES” (Santhera Pharmaceuticals (Schweiz) AG, priority 2010, dated 2012)

Tests used:
[1] = rats, cited from earlier work
[2] = tested on: C57BL/6J mice; test: Mouse model of intravitreal rotenone injection, histopathology, second study with modified less invasive injection method; assay type: in vivo
Description: This mouse model is used to assess the therapeutic potential of compounds in eye disorders characterized by mitochondrial dysfunction such as LHON, DOA, macular degeneration, retinopathy, and complex I deficiency. It is a widely accepted in vivo model based on single-eye intravitreal injection of the mitochondrial complex I inhibitor rotenone in the adult mouse. Intravitreal injection of rotenone induces neurotoxicity through mitochondrial complex I dysfunction in the retina which is the main molecular dysfunction […]. […] Histological analysis includes quantitative measurement of the retinal thickness (whole retina and individual layers), RGC apoptosis and cell death, oxidative stress, glutamine synthetase expression, and gliosis. The non-injected eye is used as a within subject, i.e. intraindividual, control. Male wild-type C57BL/6J mice (7 weeks old, about 25 g body weight) are individually housed in Makrolon type II cages with standard bedding and free access to food and water under a regular 12-hours light-dark cycle (8 a.m. to 8 p.m.). […] The injection is performed over a period of 2 min and the needle is kept in place for an additional 3 min, after which it is gently removed. Sterile surgical glue (Histoacryl, BRAUN/Aesculap AG, Germany) is used to seal the site of injection and a sterile antimicrobial ophtalmic ointment (Neosporin, GlaxoSmithKline, UK) is applied to the injected eye to avoid any infection. […] The eye balls are removed, retinas are dissected, fixed for an additional 2 h at 4°C, incubated in PB 0.1 M and 30% sucrose overnight, frozen in optimal cutting temperature compound (O.C.T., Tissue-Tek, Miles Laboratories, Elkhart, IN, USA), sliced at 14 μm, and collected onto glass slides for immunostaining. Immunostaining is performed accordingly to conventional method using multiple primary antibodies. Fluorescent-conjugated secondary antibodies and DAPI are used for visualization under a fluorescence microscope. All procedures are performed in accordance with the Swiss regulation and under a license approved by the "Kantonales Veterinäramt Basel-Land". […] A modified, less invasive injection method was used to further minimize damage caused by the injection itself. […] At 400 mg/kg Compound IA, a clear significant protection was observed (269 μm; p = 0.03), whereas at 2000 mg/kg a strong protective trend was detected (258 μm; p = 0.06). […] Table 6 In Table 6, the histological data on 7 days post-injection is expressed as % of sham (DMSO) injected control ± SEM. […] The term IA 200 defines a treatment with Compound IA at a concentration of 200 mg/kg; […], IA 400 and IA 2000: define a treatment with Compound IA at 400 mg/kg and at 2000 mg/kg, respectively. Statistical significance relative to vehicle + rotenone group is expressed as p ≤ 0.05 (*). n designates the number of retinas per group.

[3] = tested on: Immortalized lymphoblastoid cells (BC1 LCL); test: ATP assay (ATP dependent luciferase reaction, low glucose); assay type: cell-based; details: 10 µM, 72 h
Description: Electrons donated from the citric acid cycle in form of NADH are transferred between complexes I, II and III of the respiratory chain. In this process mitochondrial membrane potential is generated through proton pumps in the mitochondrial inner membrane. This electrochemical gradient across the inner mitochondrial membrane is used in healthy cells to provide the energy to drive mitochondrial ATP production. Consequently, cellular ATP levels are a good indicator of mitochondrial function. […] A potential inhibition of mitochondrial respiration can be detected through special growth conditions in vitro. […]
Experimental Procedure: This assay was therefore performed in the absence of glucose in the medium. […] The number of cells was counted and after brief washing in PBS and collecting through centrifugation (5 min; 200 x g) the cells were lysed in a volume of 0.5 ml lysis solution (4 mM EDTA, 0.2% Triton X-100) for 15 min.on ice and 10 µl of lysate was added into a white 96 well plate. […] The reaction was started by addition of 100 µl reaction mix (300 µM D-Luciferin, 5 µg/ml firefly luciferase, 75 µM DTT, 25 mM HEPES, 6.25 mM MgCl2, 625 µM EDTA and 1 mg/ml BSA) and the luminescence signal was quantified in a multimode plate reader (Tecan M1000 plate reader; luminescence integration time: 100 ms). […]

[4] = oral dose of 10 mg/kg, Torii et al.
[5] = 200 mg/kg + rotenone, 7 days post-injection, ± SEM
[6] = 400 mg/kg + rotenone, 7 days post-injection, ± SEM
[7] = 2000 mg/kg + rotenone, 7 days post-injection, ± SEM

Row | Structure (SMILES) | brain- to-plasma ratio ([1]; oral 100 mg/kg, Nagai et al) | levels in the brain of total idebenone (including metabolites) [1, 4] [ng/mL] | plasma levels of total idebenone (including metabolites, by radioactivity) [1, 4] | Gliosis [2, 5] | RGC number [2, 5] | Retinal thickness [2, 5] | Retinal thickness ([2]; 200 mg/kg, 7 days after rotenone-injection, sham about 300 µm, rotenone 220 µm) [µm] | Gliosis [2, 6] | RGC number [2, 6] | Retinal thickness [2, 6] | Retinal thickness ([2]; 400 mg/kg, 7 days after rotenone-injection, sham about 300 µm, rotenone 220 µm) [µm] | Gliosis [2, 7] | RGC number [2, 7] | Retinal thickness [2, 7] | Retinal thickness ([2]; 2000 mg/kg, 7 days after rotenone-injection, sham about 300 µm, rotenone 220 µm) [µm] | ATP levels [3] [%]
1 | COC1=C(OC)C(=O)C(CCCCCCCCCCO)=C(C)C1=O [Compound IA, Idebenone] | 1-2% | 10 | approximately 1000 ng/ml | 124.46 ± 7.37 * (n=7) % of sham (DMSO) injected control | 62.53 ± 9.13 (n=7) % of sham (DMSO) injected control | 91.17 ± 5.72 (n=8) % of sham (DMSO) injected control | 272 | 125.04 ±9.12 * (n=6) % of sham (DMSO) injected control | 63.68 ± 5.98 * (n=6) % of sham (DMSO) injected control | 89.93 ± 2.16 * (n=6) % of sham (DMSO) injected control | 269 | 129.86 ± 7.32 * (n=7) % of sham (DMSO) injected control | 64.44 ± 4.56 * (n=8) % of sham (DMSO) injected control | 86.58 ± 2.51 (n=8) % of sham (DMSO) injected control | 258 | –
2 | COC1=C(OC)C(=O)C(CCCCCCCCCC(C)(C)O)=C(C)C1=O [Compound IC] | – | – | – | – | – | – | – | – | – | – | – | – | – | – | – | 63
3 | CCCCCCCCCCCC1=C(O)C(=O)C=C(O)C1=O [Compound IE, Embelin] | – | – | – | – | – | – | – | – | – | – | – | – | – | – | – | 95
